According to publication PMC9502272, “A Metabolomics Approach for Predicting OATP1B-Type Transporter-Mediated Drug–Drug Interaction Liabilities” (Pharmaceutics, 2022):
Counter-ions that a name gives are not always drawn.

Target: T1, Oatp1b2 (Mus musculus, UniProt Q9JJL3)
T1 sequence (Q9JJL3 1-689): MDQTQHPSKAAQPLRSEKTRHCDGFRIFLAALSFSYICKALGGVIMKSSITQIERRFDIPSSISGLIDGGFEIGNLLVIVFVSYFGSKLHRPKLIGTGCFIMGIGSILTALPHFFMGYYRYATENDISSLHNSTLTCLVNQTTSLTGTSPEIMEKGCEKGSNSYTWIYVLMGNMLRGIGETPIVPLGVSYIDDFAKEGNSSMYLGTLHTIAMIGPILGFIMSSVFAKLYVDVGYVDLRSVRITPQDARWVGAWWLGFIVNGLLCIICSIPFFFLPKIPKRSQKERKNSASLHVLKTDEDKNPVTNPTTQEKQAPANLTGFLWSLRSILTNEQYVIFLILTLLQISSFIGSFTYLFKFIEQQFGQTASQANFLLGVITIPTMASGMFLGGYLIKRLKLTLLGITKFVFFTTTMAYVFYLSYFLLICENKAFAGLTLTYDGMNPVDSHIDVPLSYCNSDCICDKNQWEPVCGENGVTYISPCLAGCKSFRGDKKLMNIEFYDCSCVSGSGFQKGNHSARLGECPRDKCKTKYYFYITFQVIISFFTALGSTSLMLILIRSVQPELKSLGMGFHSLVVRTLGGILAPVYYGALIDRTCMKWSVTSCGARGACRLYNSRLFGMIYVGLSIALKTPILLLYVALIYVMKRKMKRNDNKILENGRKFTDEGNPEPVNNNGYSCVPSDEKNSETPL
Test: Untargeted metabolomics of plasma from untreated wild-type and Oatp1b2(−/−) mice
Conditions: for Fold of Change KO/WT: plasma of untreated Oatp1b2-deficient (KO) vs wild-type (WT) mice, semi-quantitative, positive = higher in KO, n = 6 per group; for Mean value KO: plasma of untreated Oatp1b2-deficient mice; for Mean value KO / Mean value WT: raw area counts rescaled to median = 1; for Mean value WT: plasma of untreated wild-type mice

SMILES | Fold of Change KO/WT | Mean value KO | Mean value WT
CCCCCC/C=C\CCCC(=O)OC(CC(=O)[O-])C[N+](C)(C)C (stereo not drawn) [5-dodecenoylcarnitine (C12:1)] | 1.46 | 1.37 | .936
Cc1cn([C@H]2C[C@H](O)[C@@H](CO)O2)c(=O)nc1N [5-methyl-2'-deoxycytidine] | 1.83 | 1.56 | .852
C[C@H](CCC(=O)O)[C@H]1CC[C@H]2[C@@H]3C[C@@H](O)[C@@H]4C[C@H](O)CC[C@]4(C)[C@H]3CC[C@]12C [6-beta-hydroxylithocholate] | 13.1 | 1.16 | .0890
C[C@H](CCC(=O)O)[C@H]1CC[C@H]2[C@@H]3CC(=O)[C@@H]4C[C@H](O)CC[C@]4(C)[C@H]3CC[C@]12C [6-oxolithocholate] | 1.43 | 0.970 | .678
CC(CCC[C@@H](C)[C@H]1CC[C@H]2[C@@H]3[C@H](O)CC4=CC(=O)CC[C@]4(C)[C@H]3CC[C@]12C)C(=O)O (stereo partly drawn) [7-alpha-hydroxy-3-oxo-4-cholestenoate (7-Hoca)] | 1.27 | 1.20 | .944
C[C@H](CCC(=O)O)[C@H]1CC[C@H]2[C@@H]3C(=O)C[C@@H]4C[C@H](O)CC[C@]4(C)[C@H]3C[C@H](O)[C@]12C [7-ketodeoxycholate] | 6.23 | 2.26 | .362
CC(=O)Nc1ccn([C@@H]2O[C@H](CO)[C@@H](O)[C@H]2O)c(=O)n1 [N4-acetylcytidine] | 1.36 | 1.12 | .819
C[N+](C)(C)CCCCC(=O)[O-] [N,N,N-trimethyl-5-aminovalerate] | 3.45 | 2.06 | .597
CC(=O)N[C@@H](Cc1cncn1C)C(=O)O [N-acetyl-3-methylhistidine] | 1.24 | 1.09 | .878
CC(=O)N[C@@H](CCCCNC(N)=O)C(=O)O [N-acetylhomocitrulline] | 1.35 | 1.17 | .861
CC(=O)N[C@@H](CC(=O)c1ccccc1N)C(=O)O [N-acetylkynurenine (2)] | 1.41 | 1.17 | .827
CC(=O)N[C@@H](CC[S+](C)[O-])C(=O)O (stereo partly drawn) [N-acetylmethionine sulfoxide] | 1.40 | 1.31 | .931
CSC[C@H](NC(=O)CC[C@H](N)C(=O)O)C(=O)NCC(=O)O [S-methylglutathione] | 1.19 | 1.11 | .931
Nc1ncnc2c1ncn2C1OC(COP(=O)(O)O)C(O)C1O (stereo not drawn) [adenosine 5'-monophosphate (AMP)] | 1.12 | 1.04 | .927
CC(C)CC(O)C(=O)O (stereo not drawn) [alpha-hydroxyisocaproate] | 2.29 | 1.80 | .787
CC(C)C(O)C(=O)O (stereo not drawn) [alpha-hydroxyisovalerate] | 1.68 | 1.43 | .850
C[C@H](CCC(=O)O)[C@H]1CC[C@H]2[C@@H]3[C@H](O)[C@@H](O)[C@@H]4C[C@H](O)CC[C@]4(C)[C@H]3CC[C@]12C [alpha-muricholate] | 45.2 | 2.71 | .0600
CCCCC/C=C\C/C=C\C/C=C\C/C=C\CCCC(=O)O[C@H](CC(=O)[O-])C[N+](C)(C)C [arachidonoylcarnitine (C20:4)] | 1.92 | 1.53 | .796
CCCCCCCCCCCCCCCCCCCC(=O)OC(CC(=O)[O-])C[N+](C)(C)C (stereo not drawn) [arachidoylcarnitine (C20)] | 1.36 | 1.21 | .889
CC(C)(O)CC(=O)O [beta-hydroxyisovalerate] | 1.40 | 1.17 | .835
C[C@H](CCC(=O)O)[C@H]1CC[C@H]2[C@@H]3[C@@H](O)[C@@H](O)[C@@H]4C[C@H](O)CC[C@]4(C)[C@H]3CC[C@]12C [beta-muricholate] | 15.2 | 2.84 | .187
C=CC1=C(C)/C(=C/c2[nH]c(Cc3[nH]c(/C=C4\NC(=O)C(C)=C4C=C)c(C)c3CCC(=O)O)c(CCC(=O)O)c2C)NC1=O [bilirubin (E,E)] | 6.12 | 1.17 | .191
C=CC1=C(C)/C(=C/c2[nH]c(Cc3[nH]c(/C=C4\NC(=O)C(C)=C4C=C)c(C)c3CCC(=O)O)c(CCC(=O)O)c2C)NC1=O [bilirubin (Z,Z)] | 5.25 | 1.48 | .282
C=CC1=C(C)/C(=C/C2=NC(=C\c3[nH]c(/C=C4\NC(=O)C(C)=C4C=C)c(C)c3CCC(=O)O)/C(CCC(=O)O)=C2C)NC1=O [biliverdin] | 4.09 | 1.84 | .450
CCCC(=O)NCC(=O)O [butyrylglycine] | 1.72 | 1.28 | .744
C[C@H](CCC(=O)O)[C@H]1CC[C@H]2[C@@H]3[C@H](O)C[C@@H]4C[C@H](O)CC[C@]4(C)[C@H]3CC[C@]12C [chenodeoxycholate] | 3.57 | 2.09 | .585
CC(C)CCC[C@@H](C)[C@H]1CC[C@H]2[C@@H]3CC=C4C[C@@H](OS(=O)(=O)O)CC[C@]4(C)[C@H]3CC[C@]12C [cholesterol sulfate] | 1.23 | 1.08 | .875
O=C(O)CNC(=O)/C=C/c1ccccc1 [cinnamoylglycine] | 1.99 | 1.54 | .776
